The text below walks through data of US8512733B2, “Stents with drug-containing amphiphilic polymer coating” (Abbott Laboratories, priority 2001, dated 2013).

The nature of series [1]: pyrene fluorescence I3/I1 ratio in different environments. Conditions: peaks at 383 nm (I3) and 373 nm (I1), excitation 335 nm, label = environment of the pyrene. It counts as physicochemical.
Procedure: Zwitterionic polymer coatings were investigated by allowing pyrene to diffuse into the polymer and studying the degree to which it is taken up, and the effects on the ratio of the fluorescence band intensities to see if there is any significant indication of the type of environment present.
The solution was used to coat polymethylmethacrylate (PMMA) fluorescence cuvettes by simply pouring into the cuvette, draining, following by an oven curing at 70° C. overnight.
The fluorescence spectrum was recorded using an excitation wavelength of 335 nm and scanned from 350-440 nm on a PE LS 50B Luminescence Spectrophotometer. Subtraction of the spectrum of each coating in water was necessary to remove the interference of a small band at 380 nm present in all methacrylate systems.
Environment information could be obtained by comparing the ratio of the intensity of the peaks at 373 nm (I1) and 383 nm (I3) (I3/I1). Where I3/I1 was similar for polymer systems, the comparative amount of pyrene present could be estimated by the maximum intensity of I1; alternatively, the entire peak area may offer an alternative measure of the comparative amount of pyrene present in different coatings. It was important to mark the side of the cuvette to ensure the same orientations were achieved each time it was replaced in the spectrophotometer.
Pyrene solution added to the coated cuvettes was allowed to stand for 16 h, the cuvette emptied and washed thoroughly with ultrapure water, refilled with ultrapure water and the fluorescence spectrum recorded. The comparative maximum height of I1 was used to estimate the relative amounts of pyrene in the coatings. This was repeated for three cuvettes of each polymer and the average taken.
The conditions of series [2]: pyrene fluorescence; cited from earlier work.
For series [3] the following is noted: P is the octanol/water partition coefficient; cited from earlier work.
Series [4] in a line: Estradiol elution studies at 25° C., non-flow system. Conditions: at 4 hours, 5 ml PBS on rollers, 15 mm DD stents from Example 1.1. It counts as physicochemical. How it is done: Elution studies were carried out at 25° C. for […] in gently agitated PBS. This was done by placing 15 mm DD stents loaded with estradiol, from Example 1.1 individually in vials containing 5 ml phosphate buffered saline (PBS) on rollers. At various time intervals up to 7 hours a 1 ml aliquot was removed and replaced with 1 ml fresh PBS. The stents and water aliquots were measured, to give the amount of drug eluted and the amount of drug remaining on the stents.

Series [5] can be described thus: Release of 17β-estradiol from stents, stirred 1000 ml PBS at 37° C. It counts as physicochemical. Conditions: five stents vigorously stirred in 1000 ml PBS at 37° C., 24 hour period. How it is done: The elution profile for 17β-estradiol, FIG. 6 from the stents produced in example 1.1, was assessed using an in-vitro test where five stents were vigorously stirred in a large volume (1000 ml) of PBS saline solution at 37° C. […] Aliquots of buffer were removed at various time points over a 24 hour period and analysed for 17β-estradiol content. When translated into in-vivo conditions, the release profile is predicted to be over a prolonged period of time.

Series [6] can be described thus: Estradiol elution studies in flow-system at 37° C. The format is physicochemical. Conditions: 100 ml/min, 500 ml PBS, 8 hour period. How it is done: The elution of estradiol was examined in a flow system at 37° C. and evaluated over an 8 hour period. PBS was maintained at 37° C. in six stirred reservoirs (500 ml each) within a water bath. A length of silicone tubing (3 mm internal diameter) was attached from each reservoir to one of six stent chambers (4 mm internal diameter 80 mm long) and back to the respective reservoir via a peristaltic pump. The system was pumped using a flow rate of 100 ml/min to reach equilibrium temperature of 37° C. The flow was stopped and two estradiol loaded 15 mm stents loaded as in Example 1 were placed in each of the six stent chambers, and flow recommenced. A stent was then removed at various time periods and wick dried. These were used to measure the amount of estradiol remaining on the stent. […]. Since the total volume of PBS passing over the stents in the flow model is […], it is likely that throughout the period the rate of desorption of drug from the stent was higher than the rate of absorption from the environment. This condition may not apply to the non-flow method.

The test system of the next series is porcine arteries. The series is described as follows: In vivo test on estradiol loaded stents. Particulars: one month.

SMILES strings stand for the structures.

For the compound `C=CC(=O)OCc1ccccc1` [benzyl acrylate monomer, benzyl acrylate], the I3/I1 ratio in series [1] amounted to 0.75. Same read-out and setting: to `C=C(C)C(=O)OCCCCCCCCCCCC` [lauryl methacrylate] belongs 1.029.

As for `O` [water], the I3/I1 ratio in series [1] was found to be 0.633. For the same compound, the “I3/I1 ratio, literature value” in series [2] is recorded as 0.63. On to `C[C@H]1C[C@@H]2[C@H]([C@@H](O)C[C@@]3(C)[C@H]2CC[C@]3(O)C(=O)CO)[C@@]2(C)C=CC(=O)C=C12` [MP, 6α-methylprednisolone], for which the “log P” value in series [3] is 1.42. `C[C@]12CC[C@@H]3c4ccc(O)cc4CC[C@H]3[C@@H]1CC[C@@H]2O` [estradiol, 17β-estradiol]: the “estradiol still remaining on the stent” value in series [4] is 62%. Moreover, the release from stent entry in series [5] is given as “sustained release”. In series [6], the “elution compared with Example 2” value is “eluted relatively more quickly”. For the same compound, the Re-endothelialization scores entry with porcine arteries is recorded as “does not inhibit the healing process”.

The log P is a log measure of how a compound divides between an organic and an aqueous phase.
